“Also recorded” adds a separate entry of the source.
Legend:
[1] = Cell viability (CC50) in primary human hepatocytes
[2] = tested on: SkMC human skeletal muscle cells; experiment: Cytotoxicity in skeletal muscle cells (CellTiter-Glo); details: at 100 μM or greater, 72 h
Experimental: (§1) HK-2 human kidney cells were obtained from ATCC (Manassas, VA) and cultured in Gibco Keratinocyte serum-free medium (Thermo Fisher Scientific, Waltham, MA) supplemented with 10% FBS (Peak Serum, Wellington, CO). Human skeletal muscle cells were obtained from Lonza (Walkersville, MD) and cultured in SkGM-2 skeletal muscle cell growth medium-2 (Lonza). Both HK-2 and skeletal muscle cells were cultured humidified at 37°C and 5% CO2. Cryopreserved human primary hepatocytes and medium were received from Lonza. Cryopreserved iCell cardiomyocytes and cardiomyocyte medium were purchased from Stem Cell Technologies (Vancouver, BC, Canada). Cryopreserved human bone marrow mononuclear cells were purchased from Lonza with HemaTox Myeloid medium purchased from [sequence] […] All cryopreserved cells (human primary hepatocytes, iCell cardiomyocytes, and human bone marrow mononuclear cells) were stored in vapor phase liquid nitrogen until the day of plating. […] Serial dilutions of compounds in DMSO were as follows: 100, 10, 1, 0.1, 0.01, 0.001, 0.0001, and 0.00001 μM (final concentration of DMSO in medium was 0.5%). […]
(§2) Following incubation, cells were dosed and incubated for 72 h at 37°C and 5% CO2. Following incubation, the endpoint cell viability CellTiter-Glo 2.0 assay (Promega, San Luis Obispo, CA) was performed and luminescence data collected on a Synergy 4 plate reader (Biotek, Winooski, VT). […]

[3] = tested on: HBV rtM204I; experiment: microbe, parasite or virus in culture; type: cell-based; details: Hepatitis B virus, HepG2
[4] = tested on: HBV genotype B (JN406371); experiment: microbe, parasite or virus in culture; type: cell-based; details: Hepatitis B virus, HepG2
[5] = tested on: cryopreserved primary human hepatocytes; experiment: Cytotoxicity in primary human hepatocytes (CellTiter-Glo); details: up to 100 μM, 72 h
Experimental: as §1, §2

[6] = tested on: HBV wild type (U95551); experiment: Cross-resistance in transfected HepG2 cells, wild type; type: cell-based, Hepatitis B virus; details: Hepatitis B virus
[7] = tested on: HBV genotype A (HE974371); experiment: microbe, parasite or virus in culture; type: cell-based; details: Hepatitis B virus, HepG2
[8] = tested on: respiratory syncytial virus; experiment: Antiviral panel: respiratory syncytial virus; type: cell-based; details: up to 100 μM, data not shown
[9] = tested on: HBV rtL180M+M204V; experiment: microbe, parasite or virus in culture; type: cell-based; details: Hepatitis B virus, HepG2
[10] = tested on: HK-2 human kidney cells; experiment: Cytotoxicity in HK-2 kidney cells (CellTiter-Glo); details: up to 100 μM, 72 h
Experimental: as §1, §2

[11] = Food effect on plasma exposure in rats; type: in vivo; details: single oral 50 mg/kg, data not shown
[12] = tested on: HBV rtA181V; experiment: microbe, parasite or virus in culture; type: cell-based; details: Hepatitis B virus, HepG2
[13] = tested on: HBV rtM204V; experiment: microbe, parasite or virus in culture; type: cell-based; details: Hepatitis B virus, HepG2
[14] = tested on: HBV genotypes A, B, C, D, E, F, G, and H; experiment: microbe, parasite or virus in culture; type: cell-based; details: Hepatitis B virus, HepG2, read-out: EC50 across HBV genotypes A to H
[15] = tested on: HBV rtS202G+M204I+M250V; experiment: microbe, parasite or virus in culture; type: cell-based; details: Hepatitis B virus, HepG2
[16] = tested on: HBV genotype G (AB064315); experiment: microbe, parasite or virus in culture; type: cell-based; details: Hepatitis B virus, HepG2
[17] = tested on: iCell cardiomyocytes; experiment: Cytotoxicity in iCell cardiomyocytes (CellTiter-Glo); details: up to 100 μM, 72 h
Experimental: as §1, §2

[18] = tested on: HBV genotype D; experiment: Anti-HBV activity in HepG2.2.15 cells (extracellular HBV DNA by qPCR); type: cell-based; details: Hepatitis B virus, 192 h; HepG2.2.15 cells, qPCR, day 8; read-out: EC50, extracellular HBV DNA
Experimental: ATI-2173 was obtained from WuXi SynTheAll. Entecavir (positive control) was obtained from Shanghai Titan Scientific Co., Ltd. HepG2.2.15 cells (derived from human hepatoblastoma cell-like HepG2) contain four 5′ to 3′ tandem copies of the HBV genotype D and were provided by WuXi. HepG2.2.15 cells were cultured in Dulbecco’s modified Eagle medium (DMEM)/F12 (Invitrogen, 11330032) supplemented with 2% fetal bovine serum (FBS) (HyClone, SV30087.03), 1% L-glutamine, 1% minimum essential medium (MEM) nonessential amino acid solution (NEAA), and 1% penicillin-streptomycin solution. QIAamp 96 DNA blood kit was purchased from Qiagen (51162). […] Culture medium containing ATI-2173 or entecavir (serially diluted) was added to cells on day 2 and refreshed on day 5. ATI-2173 dilutions were: 0.0006, 0.0024, 0.0098, 0.0391, 0.1563, 0.6250, 2.5000, and 10.0000 μM. On day 8, cell culture supernatants were collected and DNA was extracted by the QIAamp 96 DNA blood kit. qPCR was run at 95°C for 10 min, then cycled at 95°C for 15 s, 60°C for 1 min, for a total of 40 cycles. HBV DNA content in the samples was calculated according to the standard curve and CT (cycle threshold of qPCR) values of a sample. Data were normalized for maximum and minimum copy numbers.

[19] = Hepatic extraction in portal vein cannulated monkeys; type: in vivo; details: cynomolgus monkeys with portal vein cannulation, single oral 20 mg/kg and intravenous 2 mg/kg, data not shown
[20] = Protein binding; type: in vitro ADME; details: data not shown
[21] = tested on: hepatitis C virus; experiment: Antiviral panel: hepatitis C virus; type: cell-based; details: up to 100 μM, data not shown
[22] = tested on: HBV genotype F (HE974369); experiment: microbe, parasite or virus in culture; type: cell-based; details: Hepatitis B virus, HepG2
[23] = tested on: influenza virus; type: cell-based

For `Cc1cn(C2OC(COP(=O)(NC(C)C(=O)OC(C)C)Oc3ccccc3)C(O)C2F)c(=O)[nH]c1=O` (centres unmarked) [ATI-2173], the CC50 [1] was over 0.02 µM, the Cytotoxicity [2] was “Minimal cytotoxicity; also recorded: very mild” and the EC50 [3] was over 10 µM. The EC50 [4] was 0.212 µM, the Cytotoxicity [5] was “did not demonstrate any cytotoxicity” and the EC50 [6] was 0.601 µM. For the same molecule, the EC50 [7] was 0.416 µM, the Antiviral efficacy [8] was “no detectable efficacy” and the EC50 [9] was over 10 µM. The Cytotoxicity [10] was “did not demonstrate any cytotoxicity”, the “Difference in plasma exposure (Cmax or AUC0-last) to ATI-2173 or clevudine, fed versus fasted” value [11] was “no discernible differences” and the EC50 [12] was over 10 µM. The EC50 [13] was 0.162 µM, the EC50 [14] was 0.212 to 0.718 µM and the EC50 [15] was over 10 µM. The EC50 [16] was 0.23 µM, the Cytotoxicity [17] was “did not demonstrate any cytotoxicity” and the EC50 [18] was 0.26 µM. The Hepatic extraction [19] was 82%, the fraction unbound [20] was about 0.45 and the Antiviral efficacy [21] was “no detectable efficacy”. The EC50 [22] was 0.328 µM and the Antiviral efficacy [23] was “no detectable efficacy”.

From article PMC7449170, “ATI-2173, a Novel Liver-Targeted Non-Chain-Terminating Nucleotide for Hepatitis B Virus Cure Regimens” (Antimicrobial Agents and Chemotherapy, 2020)
